Source: patent US12122812B2, “Method for preparing biomaterial having selectively functionalized tyrosine, biomaterial having selectively functionalized tyrosine, and pharmaceutical composition containing same as active ingredient” (SEOUL NATIONAL UNIVERSITY R&DB FOUNDATION, priority 2018, dated 2024)

Columns and labels:
HeLa cells = test: Cytotoxicity by cell counting kit-8 (CCK-8) viability test; format: cell-based; conditions: 0.1 to 100 μM
Description: The cytotoxicity was evaluated in HeLa cells by cell counting kit-8 (CCK-8) viability test.
Particularly, HeLa cells were seeded in a 96-well tissue culture plate at the density of 5,000 cells/well and cultured in 100 μL of DMEM (Dulbecco's Modified Eagle's Medium) supplemented with 10% FBS (fetal bovine serum) for 24 hours. After replacing the medium with 90 μL of a fresh medium, 10 μl of the compound prepared in Preparative Example 4 of various concentrations (final 0.5% DMSO) was added to each well of the plate, and the cells were further cultured for 24 hours and 48 hours. The cells were washed 3 times with a fresh medium to remove extracellular samples, and 100 μl of a fresh medium containing 10% CCK-8 was added to each well of the plate. After incubating the cells at 37° C. for 2 hours, OD450 was measured with a microplate reader (Molecular Devices Co., Menlo Park, Calif., USA). Only the background signal of CCK-8 was subtracted from all the samples. The cell viability was evaluated as the percentage of absorbance of the untreated cells to the control.

Balb/c mice = test: Hematopoietic function of PEGylated rhEPO: hematocrit (HCT) in mice; format: in vivo; conditions: normal male Balb/c mice, intravenous 20 μg/kg every 3 days
Description: In order to confirm whether the PEGylated rhEPO obtained in Example 1 maintained the hematopoietic function even after the PEGylation, the following experiment was performed, and the results are shown in FIG. 6.
The rhEPO without PEGylation and the PEGylated rhEPO (PEG-rhEPO) prepared in Example 1 were intravenously injected into Balb/c mice at a dose of 20 μg/kg every 3 days. In vivo activities were compared by measuring hematocrit (HCT), a reliable method for quantification of erythrocytes. As a control, phosphate buffered saline (PBS) was used.
Particularly, normal male Balb/c mice were purchased from Orient Bio Inc. (South Korea). The weight of the mice was 23-25 g, and the mice were housed in groups of 3-4 mice in one cage. Food and water were supplied freely (ad libitum), and each cage was allowed to have a 12-hour light/dark cycle under the conventional animal experiment system of KPC, Korea.
Each sample (rhEPO or PEG-rhEPO) ([…] in DPBS) was injected intravenously into normal male Balb/c mice (50 μL/mouse) every 3 days for 2 weeks. The same amount of DPBS was administered to the control group. A total of 21 mice were used in the experiment. Blood samples were collected every 3 days including day 0 to evaluate the hematopoietic effect. Hematocrit was evaluated by measuring the volume of the packed cells obtained by centrifugation performed immediately after the blood collection. Delta hematocrit (DHematocrit) was determined by the difference between the initial hematocrit for each mouse (day 0) and the hematocrit at each time point.

Row | Compound | Cytotoxicity (cell viability, CCK-8) (HeLa cells; 24 hours) | Cytotoxicity (cell viability, CCK-8) (HeLa cells; 48 hours) | HCT level compared with rhEPO without PEGylation (statistical analysis) (Balb/c mice) | HCT level (hematocrit) over time (Balb/c mice; blood sampled every 3 days for 15 days) | HCT level compared with control group (statistical analysis) (Balb/c mice; control PBS/DPBS)
1 | N[C@@H](Cc1ccc(OS(=O)(=O)Oc2ccc(C[C@H](N)C(=O)O)cc2)cc1)C(=O)O [Preparative Example 4, (2S,2'S)-3,3′-((sulfonylbis(oxy))bis(4,1-phenylene))bis(2-aminopropanoic Acid)] | did not show cytotoxicity | did not show cytotoxicity | – | – | –
2 | PEG-rhEPO: PEGylated recombinant human erythropoietin, PEG bound by sulfate bond to Tyr-49 | – | – | no significant difference | increased for 15 days | clear difference
